Data set [1] has as its system Histomonas meleagridis. As to the kind of experiment: Test 2: cage trial, turkey chicks intracloacally infected with Histomonas meleagridis, liver and caecum lesions. The settings on record: for Caecum lesions / Liver lesions: scale 0 (no lesions) to 4 (most severe lesions). Type of data set: in vivo. From the text:
(§1) Young, susceptible turkey cock chicks were kept in cages and underwent intracloacal infection in a conventional way at an age of 2 weeks with about 5 log 10 infectious Histomonas meleagridis microorganisms. With the test groups which had been treated with the test compounds, two control groups were kept for comparison purposes (infected/untreated and uninfected/untreated). The test groups consisted of 6 to 10 turkeys. The test compounds, either the compound of the formula (I-1) or (I-2), were administered to the treated test groups 1 day before the infection and 13 days thereafter, with the feed. At the end of the trial, the animals were sacrificed and examined for lesions typical of histomoniasis (“blackhead disease”).

Data set [2] relates to Histomonas meleagridis. Briefly: Test 1: cage trial, turkey chicks intracloacally infected with Histomonas meleagridis, weight gain. The settings on record: 1 day before to 13 days after infection, uninfected/untreated group 4 set at 100%. Type of data set: in vivo.
Description: as §1

For data set [3] the following is noted: turkey cock; cited from earlier work.
Data set [4] has as its system Heterakis gallinarum. The settings on record: treatment for 14 days after the time of infection; directed against Heterakis gallinarum, not H. meleagridis; cited from earlier work.
For data set [5], the system named is histomonas. The settings on record: cited from earlier work.

As for `Cc1oc(=O)oc1Cn1c(C(F)(F)F)nc2c(Cl)cc3c(c21)OC(F)(F)C(F)(F)O3` [compound (I-2)], the results for the Caecum lesions in data set [1] (10 ppm in the feed) and in data set [1] (30 ppm in the feed) were 2.1 and 0.8, respectively. The Liver lesions in data set [1] (10 ppm in the feed) and in data set [1] (30 ppm in the feed) was 0 each time. The “effect on caecum lesions (in words)” value in data set [1] (Test 2, summary in text) is reported as “reduced the caecum lesions”. Also, the Weight gain in data set [2] (10 ppm in the feed) amounted to 35%.
`O=[N+]([O-])c1cc([As](=O)(O)O)ccc1O` [roxarsone]: in data set [3], the “effect of doubling the dosage” value is listed as “impaired motor functions”.
As for `COC(=O)Nc1nc2ccc(Sc3ccccc3)cc2[nH]1` [fenbendazole], the activity in vivo entry in data set [4] is on record as “prophylactic activity”. The “activity on histomonas in vitro” value in data set [5] is recorded as “inadequate activity”.
On to `CCN(Cn1c(C(F)(F)F)nc2c(Br)cc3c(c21)OC(F)(F)C(F)(F)O3)C(=O)OC` [compound (I-1)], for which the Caecum lesions in data set [1] (5 ppm in the feed) worked out at 3.5; in data set [1] (15 ppm in the feed), 3. The Liver lesions was found to be 0.8 in data set [1] (5 ppm in the feed) and 0 in data set [1] (15 ppm in the feed). For the same molecule, in data set [2] (5 ppm in the feed), the Weight gain came to 61%.
Regarding `CCCSc1ccc2nc(NC(=O)OC)[nH]c2c1` [albendazole], in data set [4], the activity in vivo result was “prophylactic activity”. Moreover, the “activity on histomonas in vitro” value in data set [5] is reported as “inadequate activity”.
